This passage reports Early apoptosis, Late apoptosis and Live results from patent US20240316060A1, “LASER AND BCL-2 INHIBITORS COMBINATION TO TREAT SOLID TUMORS” (Board of Regents, The University of Texas System, priority 2023, published 2024).

For this assay, the system named is 3D spheroids. Put plainly: Annexin-V assay in 3D spheroids (flow-cytometry). The format is cell-based. To be noted: without laser. The text has this: Annexin-V Assay in 3D Spheroids
Table 2 represents the flow-cytometry of solid tumors treated with various modalities including positive controls (DMSO and H2O2) compared with boron nitride/navitoclax formulations with and without laser excitation.

For `C[S+](C)[O-]` [DMSO], the Early apoptosis is given as 9.51%, the Late apoptosis is 5.23% and the Live is 85%.

`OO` [H2O2]: the Early apoptosis was 58.37%, the Late apoptosis is 40.12% and the Live is 1%.

Regarding `CC1(C)CCC(c2ccc(Cl)cc2)=C(CN2CCN(c3ccc(C(=O)NS(=O)(=O)c4ccc(N[C@H](CCN5CCOCC5)CSc5ccccc5)c(S(=O)(=O)C(F)(F)F)c4)cc3)CC2)C1` [Free NAVI, Navitoclax], the Early apoptosis is on record as 32.04%, the Late apoptosis stood at 9.64% and the Live stood at 58%.
